Where no end group is shown, it is not given here.
Key:
[1] = Solubility of Greek key peptides; assay type: physicochemical; conditions: aqueous medium / water
[2] = Stains-all binding assay (induced CD); conditions: peptides; dye 43 μM
Description: Stains-all Binding Assay-Aliquots of protein solutions were added to the Stains-all solution and mixed gently. Circular dichroism induced in the achiral dye upon binding to the protein was measured in the visible region of the spectrum (400-700 nm). The dye solution and the crystallins were prepared in 2 mM MOPS buffer, pH 7.2, containing 30% ethylene glycol (34, 35). Ellipticities were expressed in millidegrees.
CD spectra of Stains-all induced upon binding to crystallin were recorded in 2 mM MOPS buffer, pH 7.2, containing 30% ethylene glycol, path length 1 cm. Dye concentration in all experiments was 16 μM. The ellipticity data are represented in millidegrees. A, CD spectra recorded with increasing concentration of -crystallin; 1, 0.026 mg/ml (---); 2, 0.078 mg/ml (- - -); 3, 0.13 mg/ml -.-.-. and 4, 0.156 mg/ml (. . .). B, effect of calcium on Stains-all--crystallin complex spectra. Calcium was added in the dye-protein mixture (-crystallin concentration was […]), and CD was recorded. Calcium concentrations used are as follows: 1, no calcium (---); 2, 50 μM calcium (- - - -); 3, 100 μM calcium (. . .); 4, 200 μM calcium (-.-.-.); and 5, 300 μM calcium (-..-..). The J band was abolished with 300-μM calcium.
CD spectra of Stains-all induced upon binding to peptides were recorded. Dye concentration in all experiments was 43 μM. The ellipticity data are represented in millidegrees. a, CD spectra were recorded with increasing concentration of the wild type peptide g3; 0.013 mg/ml (---), 0.037 mg/ml (- - -), and 0.057 mg/ml (. . . .). b, effect of calcium on Stains-all-peptide complex. Calcium was added to the dye-peptide mixture (peptide concentration was 57 μg/ml) and calcium concentrations used were: no calcium (---), 0.7 mM calcium (- - - -), and 7.5 mM calcium (. . . .). c and d represent the Stains-all binding of the modified peptides, g3a and g3b. Identical concentrations of dye and peptides were used.

[3] = 45Ca overlay method (peptide dot-blot); assay type: binding; conditions: dot-blot on polyvinylidene difluoride membrane
Description: Calcium Binding Studies by ^45Ca Overlay Method-Calcium binding to peptides was done by ^45Ca overlay method of Maruyama et al, 133). […] of peptides were spotted onto a polyvinylidene difluoride membrane by dot-blot apparatus. The membrane was equilibrated in a solution containing 10-mM imidazole HCl. pH 6.8, 60 mM KCl, 5 mM MgCl2 and then incubated for 15 min at 25° C. in the same buffer containing 1 microCi/mil ^45Ca. The membrane was then rinsed twice in 45% ethanol, blotted dry, and exposed to PhosphorImager screen, and the signal was read in Phosphorimager (Fuji Bas-1800).
The wild type peptide g3, its variants (g3a and g3b) and s3a were spotted onto a polyvinylidene difluoride membrane and detected by ^45Ca overlay. For a positive control, EF-hand peptide corresponding to site 4 of rat neuronal calcium sensor-1 was used; bovine serum albumin (BSA) was used as a negative control.

[4] = Calcium binding of single crystallin domain of AIMI; conditions: compared with gamma-crystallin

| Stains-all binding, induced CD band [2] | 45Ca binding [3] | Molecule | solubility [1] | calcium binding affinity [4] |
| --- | --- | --- | --- | --- |
| – | – | RMRIYERDDFRGQMSEITDDCPSLQDRFHLTEVHSLNVLEGS [g3] | fairly soluble in aqueous medium | – |
| decreased several fold | do not show detectable binding | g3a: g3 mutant with Glu-95 and Glu-121 modified to Lys, Seq. ID No. 2 (RMRIYKRDDFRGQMSEITDDCPSLQDRFHLTKVHSLNVLEGS) | – | – |
| binds the dye and induces the band | do not show detectable binding | g3b: g3 mutant with aspartates 108 and 109 replaced by Lys, Seq. ID No. 3 (RMRIYERDDFRGQMSEITKKCPSLQDRFHLTEVHSLNVLEGS) | – | – |
| – | – | AIMI: single crystallin domain of AIMI (absent in melanoma), 1022-1117 residues, comprising two Greek keys (protein, UniProt Q9Y4K1 1022-1117, looked up, fragment, crystallin domain, single crystallin domain of AIMI (absent in melanoma), 1022-1117 residues, comprising two Greek keys) AAKSGPQVIPPASEKTLPIQAQSQGSRTPLMAESSPTNSPSSGNHLATPQRPDQTVTNGQDSPASLLNISAGSDDSVFDSSSDMEKFTEIIKQMDS | – | binds calcium with a comparative affinity to gamma-crystallin |

| Molecule | Stains-all binding, induced CD band [2] | 45Ca binding [3] | solubility [1] | calcium binding affinity [4] |
| --- | --- | --- | --- | --- |
| s3a: control peptide, first Greek key motif of spherulin 3a (residues 14-56), Seq. ID No. 4 (GEVFLYKHVNFQGDSWKVTGNVYDFRSVSGLNDVVSSVKVGPN) | binds the dye and induces a calcium-sensitive band at 470-475 nm | – | not soluble in water | – |

Reference: patent publication US7711497B2, “Method of identifying calcium-binding sites in gamma-crystallin useful for management of cataract” (Council of Scientific and Industrial Research, priority 2002, dated 2010)
